Assays:
Assay in all cases: fluorescence titration of purified protein, hyperbolic fit, […]°C
[1] = target: T1, drFabp2 (intestinal fatty acid binding protein) (Danio rerio, UniProt A0A8M1P5F0)
T1 construct: gene fabp2; Full-length wild-type, recombinant from E. coli BL21 (DE3), delipidated (apo)
T1 sequence (A0A8M1P5F0 1-132): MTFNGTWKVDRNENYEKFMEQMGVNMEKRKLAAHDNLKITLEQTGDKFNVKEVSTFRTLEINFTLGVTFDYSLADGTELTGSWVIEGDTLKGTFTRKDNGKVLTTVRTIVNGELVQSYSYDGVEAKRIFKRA

[2] = target: T2, drFabp2 (intestinal fatty acid binding protein) (Danio rerio, UniProt A0A8M1P5F0, K17A/K30A/R29A)
T2 construct: gene fabp2; Full-length mutant, recombinant from E. coli BL21 (DE3), delipidated (apo)
T2 sequence (A0A8M1P5F0 entry or part of it K17A/R29A/K30A): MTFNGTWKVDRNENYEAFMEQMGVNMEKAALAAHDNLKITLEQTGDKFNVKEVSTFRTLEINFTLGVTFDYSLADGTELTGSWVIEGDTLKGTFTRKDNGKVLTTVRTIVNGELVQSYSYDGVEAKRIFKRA

[3] = target: T3, drFabp2 (intestinal fatty acid binding protein) (Danio rerio, UniProt A0A8M1P5F0, K17A/K28A/R29A)
T3 construct: gene fabp2; Full-length mutant, recombinant from E. coli BL21 (DE3), delipidated (apo)
T3 sequence (A0A8M1P5F0 entry or part of it K17A/K28A/R29A): as the sequence (A0A8M1P5F0 entry or part of it K17A/R29A/K30A) above, with K28A, A30K counted along it

How did the Kd [1] turn out when `CC1=CC(C)=[N+]2C1=Cc1ccc(CCCCCCCCCCCCCCCC(=O)O)n1[B-]2(F)F` [BODIPY FL C16] was run?
The Kd was 160 nM.

What about the Kd [2] of the same molecule?
The Kd was 129 nM.

What about the Kd [3] of the same molecule?
The Kd was 112 nM.
